Test system: human myeloma cell line MM.1S
Assay: SILAC acetylated-lysine peptide profiling, HDAC inhibitor vs DMSO (light/heavy ratio)
Type: cell-based
Excerpt: An embodiment of the invention comprises utilizing the SILAC method in order to quantitate changes in protein expression between two or more populations of cells. The SILAC method is a technique based on mass spectrometry that detects differences in protein abundance among samples using non-radioactive isotopic labeling. The SILAC method is known in the art, and described in detail in Ong et al., “Stable Isotope Labeling by Amino Acids in Cell Culture, SILAC, as a Simple and Accurate Approach to Expression Proteomics”, Molecular & Cellular Proteomics, vol. 1, pp. 376-386 (2002), which is incorporated herein by reference in its entirety.
Briefly, the SILAC method involves growing two populations of cells in cell culture. The first population of cells is grown in growth media containing normal amino acids (“normal media”). The second population of cells is grown in media lacking a standard essential amino acid (such as lysine), but is then supplemented with a non-radioactive, isotopically labeled form of that essential amino acid (such as lysine labeled with ^13C atoms, rather than normal ^12C atoms), which is called “heavy media”. When the two populations of cells are each growing in the medium, they incorporate the amino acids into all of their proteins. The growth of cells maintained in the heavy media is no different from that in normal media. All peptides containing the heavy amino acids are heavier than their normal counterparts. The cells from each of the two populations of cells are lysed. The lysates from each of the two cell populations are then combined. The combined cell lysates are then analyzed by mass spectrometry. Pairs of chemically identical peptides of different stable isotope composition can be differentiated in a mass spectrometer due to their difference in mass. The ratio of peak intensities in the mass spectrum for such peptide pairs reflects the abundance ratio for the two proteins.
This example describes SILAC studies that were performed to compare the effects of three different HDAC inhibitors (Compound A, Compound B, and tubastatin A) to a control on a human multiple myeloma cell line. The HDAC inhibitors were also compared amongst themselves to determine differences in their effects.
A human myeloma cell line MM.1S was grown using either ^12C (light) or ^13C (heavy) lysine containing culture medium. The “heavy” cells were treated with DMSO as the control, and the “light” cells were treated with a single HDAC inhibitor at 37° C. for 6 hours. The heavy and light cells were lysed, and the lysates were mixed in 1:1 ratio and digested with the protease trypsin. The acetylated lysine containing peptides (due to the action of the HDAC inhibitor) in the digested peptide pool were captured by a non-specific anti-acetylated lysine antibody cocktail (the antibodies identify both light and heavy acetylated peptides), and subjected to mass spectrometry analysis in order to identify thousands of individual peptides.
Thousands of peptides were identified in pairs (^12C and ^13C) due to their known mass differences. The amino acid sequence and quantitative ratio (Light/Heavy) of a given peptide in two differentially treated cell lysates were then determined and annotated with their possible protein (gene) sources.
As stated above, three HDAC inhibitors (Compound A, Compound B, and Tubastatin A) were used. Thus, the SILAC method was performed three times, with a different HDAC inhibitor compared to a control each time. Accordingly, there are three pairs of quantitative data in the table below, i.e., Compound A:DMSO, Compound B:DMSO, and Tubastatin A:DMSO. A cut-off of 1.30 fold of change (increase or decrease) was then used to determine “changed” or “+” in the table, and any peptides with a fold of change less than 1.3 fold were determined to be “unchanged” or “0” in the table. Those peptides that were not identified were marked as “NA” in the table. […]

Which results are given for `O=C(CCCCCCNC(=O)c1cnc(N(c2ccccc2)c2ccccc2)nc1)NO` [Compound A, 2-(diphenylamino)-N-(7-(hydroxyamino)-7-oxoheptyl)pyrimidine-5-carboxamide]?
L/H ratio of acetylated peptide (ac)[…](ac)AAK (SEQ ID NO: 6) (VDAC3 [12], log 2 scale, drug vs DMSO): 0.00; L/H ratio of acetylated peptide YK(ac)[…] (SEQ ID NO: 117) (VDAC3 [63], log 2 scale, drug vs DMSO): 0.00; light to heavy ratio (L/H ratio) of acetylated peptide, log 2 scale (VGIVGK(ac)YGTR (SEQ ID NO: 250), 60S ribosomal protein L37a [13], RPL37A): −0.44; L/H ratio of acetylated peptide TNEK(ac)VELQELNDR (SEQ ID NO: 122) (VIM [104], log 2 scale, drug vs DMSO): 0.00; L/H ratio of acetylated peptide FANYIDK(ac)VR (SEQ ID NO: 118) (VIM [120], log 2 scale, drug vs DMSO): 0.00; L/H ratio of acetylated peptide […](ac)GQGK (SEQ ID NO: 119) (VIM [139], log 2 scale, drug vs DMSO): 0.00; L/H ratio of acetylated peptide SK(ac)[…] (SEQ ID NO: 121) (VIM [294], log 2 scale, drug vs DMSO): 0.00; L/H ratio of acetylated peptide LQDEIQNMK(ac)EEMAR (SEQ ID NO: 120) (VIM [373], log 2 scale, drug vs DMSO): 0.00; light to heavy ratio (L/H ratio) of acetylated peptide […](ac)QLFR (SEQ ID NO: 321) (Vesicle-trafficking protein SEC22b [38], SEC22B, drug:DMSO): 1.00 log 2; light to heavy ratio (L/H ratio), log 2 scale, acetylated peptide EK(ac)LQEEMLQR (SEQ ID NO: 762) (Vimentin [188], gene VIM, drug:DMSO): 0.92; light to heavy ratio (L/H ratio) of acetylated peptide TLLIK(ac)TVETR (SEQ ID NO: 269) (Vimentin [445], VIM, drug:DMSO): 0.45 log 2; light to heavy ratio (L/H ratio) of acetylated peptide IAAYK(ac)SILQER (SEQ ID NO: 531) (X-ray repair cross-complementing protein 5 [265], gene XRCC5, inhibitor:DMSO): −0.41 log 2; light to heavy ratio (L/H ratio) of acetylated peptide EEAIK(ac)FSEEQR (SEQ ID NO: 509) (X-ray repair cross-complementing protein 5 [648], gene XRCC5, inhibitor:DMSO): −0.60 log 2; light to heavy ratio (L/H ratio) of acetylated peptide FNNFLK(ac)ALQEK (SEQ ID NO: 545) (X-ray repair cross-complementing protein 5 [660], gene XRCC5, inhibitor:DMSO): 0.39 log 2; light to heavy ratio (L/H ratio) of acetylated peptide […](ac)HFQD (SEQ ID NO: 355) (X-ray repair cross-complementing protein 6 [605], XRCC6, drug:DMSO): 0.00 log 2; L/H ratio of acetylated peptide ALQEK(ac)VEIK (SEQ ID NO: 123) (XRCC5 [665], log 2 scale, drug vs DMSO): 0.00; light to heavy ratio (L/H ratio) of acetylated peptide, log 2 scale (YNCDK(ac)MICR (SEQ ID NO: 254), Ubiquitin-605 ribosomal protein L40 [93], UBA52): 0.38; light to heavy ratio (L/H ratio) of acetylated peptide YFLDK(ac)TLTSR (SEQ ID NO: 293) ([3-methyl-2-oxobutanoate dehydrogenase [lipoamide]] kinase mitochondrial [192], BCKDK, drug:DMSO): 0.68 log 2; L/H ratio of acetylated peptide ([…](ac)MVAAK (SEQ ID NO: 491), Cyclic AMP-dependent transcription factor ATF-4 [267], ATF4): −1.00 log 2; L/H ratio of acetylated peptide ([…](ac)YPLR (SEQ ID NO: 493), Isoform 1 of NADH-cytochrome b5 reductase 3 [42], CYB5R3): −1.00 log 2; light to heavy ratio (L/H ratio) of acetylated peptide SAYFAEK(ac)LYK (SEQ ID NO: 292) (annexin A4 [255], ANXA4, drug:DMSO): 0.67 log 2; light to heavy ratio (L/H ratio) of acetylated peptide TLFVK(ac)[…] (SEQ ID NO: 511) (cDNA FLJ45706 fis clone FEBRA2028457 highly similar to Nucleolin [470], gene NCL, inhibitor:DMSO): −0.59 log 2; light to heavy ratio (L/H ratio) of acetylated peptide ILMSK(ac)PVLSGGTGR (SEQ ID NO: 291) (cDNA FLJ55380 highly similar to Protein kinase C-binding protein 1 [440], ZMYND8, drug:DMSO): 0.67 log 2; light to heavy ratio (L/H ratio) of acetylated peptide YDGK(ac)WEVEEMK (SEQ ID NO: 274) (cDNA FLJ55574 highly similar to Calnexin [138], CANX, drug:DMSO): 0.48 log 2; light to heavy ratio (L/H ratio) of acetylated peptide LNK(ac)PFLFDTK (SEQ ID NO: 327) (cDNA FLJ55574 highly similar to Calnexin [172], CANX, drug:DMSO): 0.00 log 2; light to heavy ratio (L/H ratio) of acetylated peptide LIGK(ac)QGR (SEQ ID NO: 629) (cDNA FLJ56047 highly similar to A kinase anchor protein 1 mitochondrial [667], gene AKAP1, inhibitor:DMSO): 0.49 log 2; light to heavy ratio (L/H ratio) of acetylated peptide LLASK(ac)SLLNR (SEQ ID NO: 322) (cDNA FLJ56303 highly similar to Translocon-associated protein subunit beta [46], SSR2, drug:DMSO): 1.00 log 2; light to heavy ratio (L/H ratio) of acetylated peptide LPSSTK(ac)SGWPR (SEQ ID NO: 500) (cDNA FLJ75110 highly similar to Homo sapiens PHD finger protein 15 (PHF15) mRNA [38], gene PHF15, inhibitor:DMSO): −0.78 log 2; light to heavy ratio (L/H ratio) of acetylated peptide IINEVSK(ac)[…] (SEQ ID NO: 341) (cDNA FLJ77177 highly similar to Homo sapiens arginine-rich mutated in early stage tumors (ARMET) mRNA [97], MANF, drug:DMSO): 0.00 log 2; light to heavy ratio (L/H ratio) of acetylated peptide TNVPVK(ac)LFAR (SEQ ID NO: 348) (cDNA FLJ77422 highly similar to Homo sapiens RNA binding protein autoantigenic (hnRNP-associated with lethal yellow homolog (mouse)) transcript variant 1 mRNA (Fragment) [165], RALY, drug:DMSO): 0.00 log 2; light to heavy ratio (L/H ratio) of acetylated peptide EIAQEFK(ac)TDLR (SEQ ID NO: 337) (histone cluster 2 H3 pseudogene 2 [80], HIST2H3PS2, drug:DMSO): 0.00 log 2; light to heavy ratio (L/H ratio) of acetylated peptide GSK(ac)[…] (SEQ ID NO: 265) (membrane-associated progesterone receptor component 2 [159], PGRMC2, drug:DMSO): 0.43 log 2; light to heavy ratio (L/H ratio) of acetylated peptide SK(ac)SDPIMLLK (SEQ ID NO: 255) (pyruvate dehydrogenase E1 component subunit alpha somatic form mitochondrial isoform 2 precursor [351], PDHA1, drug:DMSO): 0.39 log 2; light to heavy ratio (L/H ratio) of acetylated peptide VTNLLMLK(ac)GK (SEQ ID NO: 350) (regulator of differentiation 1 isoform 2 [64], ROD1, drug:DMSO): 0.00 log 2; light to heavy ratio (L/H ratio) of acetylated peptide LTSLNVK(ac)YNNDK (SEQ ID NO: 590) (regulator of differentiation 1 isoform 2 [236], gene ROD1, inhibitor:DMSO): 0.44 log 2; light to heavy ratio (L/H ratio) of acetylated peptide GWLK(ac)[…] (SEQ ID NO: 278) (triosephosphate isomerase isoform 2 [231], TPI1, TPI1P1, drug:DMSO): 0.54 log 2

— patent publication US20140357512A1, “HISTONE DEACETYLASE (HDAC) BIOMARKERS IN MULTIPLE MYELOMA” (priority 2013, published 2014)
